Laboratory results published in patent US12150973B2, “OCA-B peptide conjugates and methods of treatment” (priority 2018, dated 2024).

What was measured:
female NOD mice = test: NOD mouse model of newly manifested type 1 diabetes; format: in vivo; settings: for pancreatic T cell infiltration (total numbers and percentages): flow cytometry; for pancreatic T cell infiltration (total numbers and percentages) / elevated blood glucose: 12 hr after final injection; for elevated blood glucose: female 14-18 week-old NOD mice, glucose newly risen above 225 mg/dL, three intravenous injections of 20 mg/kg spaced by 12 hr
Procedure: (§1) FIGS. 3A-D show OCA-B inhibitors and results using these peptides in primary CD4 T cells and in a NOD mouse model. […] Peptides #2 (SEQ ID NO: 2) and #3 (SEQ ID NO: 3) show efficacy. Arrows indicate position of mutant in FIG. 2C. Below: Il2 expression in primary CD4 T cells treated with 25 μM peptide #2 measured by RT-qPCR. […] In these animals, most pancreatic beta function is lost, and the diabetes arises from autoimmune inflammation (insulitis) in the pancreas, making the remaining beta cells nonfunctional.
Blood collection occurred prior to 2nd injection and 12 hr after final injection. […] Il2 gene expression was measured by TaqMan RT-qPCR. […] FIGS. 9D and E show similar analysis conducted using pancreatic lymph nodes (PLNs).
The peptide was synthesized and purified for an in vivo experiment. T1D onset in NOD mice is spontaneous and acute, allowing the administration of the peptide as symptoms arise. Female 14-18 week-old NOD mice whose glucose levels were newly-risen above 225 mg/dL but were still below 275 mg/dL were treated with three intravenous injections of 20 mg/kg peptide or Tat-only peptide control. The peptide half-life in serum was predicted to be ˜5 hr, and therefore the injections were spaced by 12 hr. Twelve hours after the final injection, blood glucose was collected and flow cytometry performed on the pancreas and pancreatic lymph nodes (PLNs). Strikingly, the inhibitor reversed elevated blood glucose (FIG. 3B; also see, FIG. 9), pancreatic T cell infiltration (both total numbers and percentages, FIG. 3C and not shown; also see, FIG. 9) and pro-inflammatory IFNγ and IL-17A cytokine production (not shown). Control peptide at the same concentration had no effect. […] OCA-B levels in B cells are at least 50-fold higher than in T cells (Immgen), making it likely that the observed effects are due to competitive inhibition in T cells. […] This peptide was used as a proto-drug to assess function and possible side effects.

primary CD4 T cells = test: Il2 and Ifng expression in restimulated primary CD4 T cells (RT-qPCR); format: cell-based
Procedure: as §1
Disclosed herein are methods that can be carried out to determine the efficacy of one or more peptides for their ability to block the interaction of OCA-B and Jmjd1a or Oct1. In some aspects, the method can be, for low-throughput studies, treating primary human or mouse CD4 T cells that have been previously stimulated and rested in culture with the test peptide (10-50 μM), and re-stimulating cells with CD3/CD28 antibodies in the presence of inhibitor. Efficacy can be determined by suppression of e.g., Il2 gene expression in T cells receiving a second stimulation, phenocopying the OCA-B germline deficient mouse (as shown in FIG. 3A). […]

CD4 T cell = test: Viability, morphology and expansion of peptide-treated CD4 T cells; format: cell-based; settings: 25 μM peptide
Text: Peptides were designed overlapping the OCA-B surface responsible for Jmjd1a binding, and were synthesized as Tat-fusions for membrane permeability (FIG. 3A). […] Treated cells show no changes in viability, morphology or expansion (not shown). Peptide #2 was used for subsequent experiments.

[1] = NOD mice, three intravenous injections of 20 mg/kg, PLNs
[2] = NOD mice, three intravenous injections of 20 mg/kg, pancreas

Q: Which results are given for “VKELLRRKRGH-GSG(linker)-GRKKRRQRRRGY(Tat) (VKELLRRKRGHGSGGRKKRRQRRRGY) [SEQ ID NO: 10, OCA-B/Jmjd1a interface peptide fused to Tat peptide through a GSG linker]”?
A: T cell numbers or percentages in pancreatic lymph nodes (PLNs) (female NOD mice; [1]): unaffected; pro-inflammatory cytokine production in pancreatic lymph nodes (PLNs) (female NOD mice; [1]): unaffected; pancreatic T cell infiltration (total numbers and percentages) (female NOD mice; [2]): reduction; elevated blood glucose (female NOD mice): strong efficacy

Q: What does the source list for “ARPYQGVRVKEPVKELLRRKRGH [Peptide #3, OCA-B fragment synthesized as Tat fusion]”?
A: Il2 and Ifng expression following CD4 T cell restimulation (primary CD4 T cells; 25 μM peptide, Tat-fusion, compared with OCA-B null phenotype): phenocopies the OCA-B null phenotype; efficacy (Il2 expression in primary CD4 T cells) (primary CD4 T cells; peptides synthesized as Tat fusions, FIG. 3A): show efficacy; changes in viability, morphology or expansion of treated cells (CD4 T cell): no changes

Q: For “GRKKRRQRRRGY [Tat-only peptide control, reference compound]”, which “pro-inflammatory IFNγ and IL-17A cytokine production” value (female NOD mice; [2]) is on record?
A: no effect

Q: What about the “pancreatic T cell infiltration (total numbers and percentages)” value (female NOD mice; [2]) of the same substance?
A: no effect

Q: And the “T1D progression / emergence” value (female NOD mice; NOD mouse model, three injections, short time interval)?
A: progress

Q: What about the elevated blood glucose (female NOD mice) of the same substance?
A: no effect
